Consider 26 compounds from patent US7173004B2, “Macrocyclic isoquinoline peptide inhibitors of hepatitis C virus” (Bristol-Myers Squibb Company, priority 2003, dated 2007).

Structures are written as SMILES. pIC50: −log10 of the molar value.

In the first experiment the target is T1, HCV NS3/4A protease complex, BMS strain (genotype 1a) (UniProt P27958, C1454S/C1711G, species not given/STRAIN_BMS).
T1 construct: b1001: DNA encoding the recombinant HCV NS3/4A protease complex (amino acids 1027 to 1711) ... a three-lysine solubilizing tail was added at the 3′-end of the NS4A coding region; fused on or other part: Three-lysine solubilising tail at the C-terminus of NS4A; A His tag is implied by the pET21b vector and Ni-NTA purification
Briefly: Recombinant HCV NS3/4A protease complex FRET peptide assay, BMS strain. The conditions noted are these: NS3/4A BMS Strain; activity range classes. Format: biochemical. An excerpt:
Recombinant HCV NS3/4A Protease Complex FRET Peptide Assay
The purpose of this in vitro assay was to measure the inhibition of HCV NS3 protease complexes, derived from the BMS strain, H77C strain or J416S strain, as described below, by compounds of the present invention. This assay provides an indication of how effective compounds of the present invention would be in inhibiting HCV proteolytic activity.
Serum from an HCV-infected patient was obtained from Dr. T. Wright, San Francisco Hospital. An engineered full-length cDNA (compliment deoxyribonucleic acid) template of the HCV genome (BMS strain) was constructed from DNA fragments obtained by reverse transcription-PCR (RT-PCR) of serum RNA (ribonucleic acid) and using primers selected on the basis of homology between other genotype 1a strains. From the determination of the entire genome sequence, a genotype 1a was assigned to the HCV isolate according to the classification of Simmonds et al. (See P Simmonds, K A Rose, S Graham, S W Chan, F McOmish, B C Dow, E A Follett, P L Yap and H Marsden, J. Clin. Microbiol., 31(6), 1493–1503 (1993)). […] The infectious clones, H77C (1a genotype) and J4L6S (1b genotype) were obtained from R. Purcell (NIH) and the sequences are published in Genbank (AAB67036, see Yanagi, M., Purcell, R. H., Emerson, S. U. and Bukh, J. Proc. Natl. Acad. Sci. U.S.A. 94(16), 8738–8743 (1997); AF054247, see Yanagi, M., St Claire, M., Shapiro, M., Emerson, S. U., Purcell, R. H. and Bukh, J, Virology 244 (1), 161–172. (1998)).
The H77C and J4L6S strains were used for production of recombinant NS3/4A protease complexes. DNA encoding the recombinant HCV NS3/4A protease complex (amino acids 1027 to 1711) for these strains were manipulated as described by P. Gallinari et al. (see Gallinari P, Paolini C, Brennan D, Nardi C, Steinkuhler C, De Francesco R. Biochemistry. 38(17):5620–32, (1999)). Briefly, a three-lysine solubilizing tail was added at the 3′-end of the NS4A coding region. The cysteine in the P1 position of the NS4A-NS4B cleavage site (amino acid 1711) was changed to a glycine to avoid the proteolytic cleavage of the lysine tag. Furthermore, a cysteine to serine mutation was introduced by PCR at amino acid position 1454 to prevent the autolytic cleavage in the NS3 helicase domain. The variant DNA fragment was cloned in the pET21b bacterial expression vector (Novagen) and the NS3/4A complex was expressed in Escherichia coli strain BL21 (DE3) (Invitrogen) following the protocol described by P. Gallinari et al. (see Gallinari P, Brennan D, Nardi C, Brunetti M, Tomei L, Steinkuhler C, De Francesco R., J. Virol. 72(8):6758–69 (1998)) with modifications. Briefly, NS3/4A expression was induced with 0.5 mM Isopropyl β-D-1-thiogalactopyranoside (IPTG) for 22 hr at 20° C. A typical fermentation (10 L) yielded approximately 80 g of wet cell paste. The cells were resuspended in lysis buffer (10 mL/g) consisting of 25 mM N-(2-Hydroxyethyl)piperazine-N′-(2-Ethane Sulfonic acid) (HEPES), pH7.5, 20% glycerol, 500 mM Sodium Chloride (NaCl), 0.5% Triton-X100, 1 microgram/milliliter (“μg/mL”) lysozyme, 5 mM Magnesium Chloride (MgCl2), 1 ug/ml DnaseI, 5 mM β-Mercaptoethanol (βME), Protease inhibitor—Ethylenediamine Tetraacetic acid (EDTA) free (Roche), homogenized and incubated for 20 mins at 4° C. The homogenate was sonicated and clarified by ultra-centrifugation at 235000 g for 1 hr at 4° C. Imidazole was added to the supernatant to a final concentration of 15 mM and the pH adjusted to 8.0. The crude protein extract was loaded on a Nickel-Nitrilotriacetic acid (Ni-NTA) column pre-equilibrated with buffer B (25 mM HEPES, pH8.0, 20% glycerol, 500 mM NaCl, 0.5% Triton-X100, 15 mM imidazole, 5 mM βME). The sample was loaded at a flow rate of 1 mL/min. The column was washed with 15 column volumes of buffer C (same as buffer B except with 0.2% Triton-X100). The protein was eluted with 5 column volumes of buffer D (same as buffer C except with 200 mM Imidazole). […]
Broadly, the pIC50 is the negative decadic logarithm of the IC50, by convention in mol/L. Regarding `COc1ccc2c(OC3CC4C(=O)NC5(C(=O)O)CC5C=CCCCCCC(NC(=O)OC(C)(C)C)C(=O)N4C3)nccc2c1` (centres unmarked) [Compound 17A], the pIC50 was over 7.30.
Same read-out and setting: the figure for `COc1ccc2c(OC3CC4C(=O)NC5(C(=O)O)CC5C=CCCCSCC(NC(=O)OC(C)(C)C)C(=O)N4C3)nccc2c1` (centres unmarked) [Compound 18A, 14-tert-Butoxycarbonylamino-18-(6-methoxy-isoquinolin-1-yloxy)-2,15-dioxo-12-thia-3,16-diaza-tricyclo[14.3.0.0^4,6]nonadec-7-ene-4-carboxylic acid] is 6.30 to 7.30; for `COc1ccc2c(OC3CC4C(=O)NC5(C(=O)O)CC5C=CCOCCCC(NC(=O)OC(C)(C)C)C(=O)N4C3)nccc2c1` (centres unmarked) [Compound 27, 14-tert-Butoxycarbonylamino-18-(6-methoxy-isoquinolin-1-yloxy)-2,15-dioxo-10-oxa-3,16-diaza-tricyclo[14.3.0.0^4,6]nonadec-7-ene-4-carboxylic acid] it is 6.30 to 7.30.

The experiment is the same for the next values; noted with them: NS3/4A BMS strain; activity range symbols.
On to `O=C(N[C@H]1CCCCC/C=C\[C@@H]2C[C@@]2(C(=O)NS(=O)(=O)C2CC2)NC(=O)[C@@H]2C[C@@H](Oc3nccc4ccccc34)CN2C1=O)O[C@H]1CCOC1` [Compound 15, [4-Cyclopropanesulfonylaminocarbonyl-18-(isoquinolin-1-yloxy)-2,15-dioxo-3,16-diaza-tricyclo[14.3.0.0^4,6]nonadec-7-en-14-yl]-carbamic acid tetrahydro-furan-3-yl ester], for which the pIC50 was over 7.30.
On to `CC(C)OC(=O)N[C@H]1CCCCC/C=C\[C@@H]2C[C@@]2(C(=O)NS(=O)(=O)C2CC2)NC(=O)[C@@H]2C[C@@H](Oc3nccc4ccccc34)CN2C1=O` [Compound 16, [4-Cyclopropanesulfonylaminocarbonyl-18-(isoquinolin-1-yloxy)-2,15-dioxo-3,16-diaza-tricyclo[14.3.0.0^4,6]nonadec-7-en-14-yl]-carbamic acid isopropyl ester], for which the negative logarithm of the IC50 (pIC50) was over 7.30.
Regarding `COc1ccc2c(O[C@@H]3C[C@H]4C(=O)N[C@]5(C(=O)NS(=O)(=O)C6CC6)C[C@H]5/C=C\CCCCC[C@H](NC(=O)OC(C)(C)C)C(=O)N4C3)nccc2c1` [Compound 17B, [4-Cyclopropanesulfonylaminocarbonyl-18-(6-methoxy-isoquinolin-1-yloxy)-2,15-dioxo-3,16-diaza-tricyclo[14.3.0.0^4,6]nonadec-7-en-14-yl]-carbamic acid tert-butyl ester], the pIC50 was over 7.30.
For the compound `COc1ccc2c(OC3C[C@H]4C(=O)N[C@]5(C(=O)NS(=O)(=O)C6CC6)C[C@H]5/C=C\CCCSC[C@H](NC(=O)OC(C)(C)C)C(=O)N4C3)nccc2c1` (some centres unmarked) [Compound 18B, [4-Cyclopropanesulfonylaminocarbonyl-18-(6-methoxy-isoquinolin-1-yloxy)-2,15-dioxo-12-thia-3,16-diaza-tricyclo[14.3.0.0^4,6]nonadec-7-en-14-yl]-carbamic acid tert-butyl ester], the pIC50 was over 7.30.
Same read-out and setting: then `COc1ccc2c(O[C@@H]3C[C@H]4C(=O)N[C@]5(C(=O)NS(=O)(=O)C6CC6)C[C@H]5/C=C\CCCS(=O)(=O)C[C@H](NC(=O)OC(C)(C)C)C(=O)N4C3)nccc2c1` [Compound 19], with over 7.30.
For the compound `O=C(NC1CCCCCC=CC2CC2(C(=O)NS(=O)(=O)C2CC2)NC(=O)C2CC(Oc3nccc4ccccc34)CN2C1=O)OC1CCCC1` (centres unmarked) [Compound 20], the pIC50 was over 7.30.
For the compound `COc1c(NC2CCCCCC=CC3CC3(C(=O)NS(=O)(=O)C3CC3)NC(=O)C3CC(Oc4nccc5ccccc45)CN3C2=O)c(=O)c1=O` (centres unmarked) [Compound 21], the pIC50 is over 7.30.
With `O=C(CC1CC1)NC1CCCCCC=CC2CC2(C(=O)NS(=O)(=O)C2CC2)NC(=O)C2CC(Oc3nccc4ccccc34)CN2C1=O` (centres unmarked) [Compound 22], the pIC50 is over 7.30.
`CCCNC(=O)NC1CCCCCC=CC2CC2(C(=O)NS(=O)(=O)C2CC2)NC(=O)C2CC(Oc3nccc4ccccc34)CN2C1=O` (centres unmarked) [Compound 23]: the pIC50 was over 7.30.
In the case of `COCC(=O)NC1CCCCCC=CC2CC2(C(=O)NS(=O)(=O)C2CC2)NC(=O)C2CC(Oc3nccc4ccccc34)CN2C1=O` (centres unmarked) [Compound 24], the pIC50 is over 7.30.
As to `CS(=O)(=O)NC1CCCCCC=CC2CC2(C(=O)NS(=O)(=O)C2CC2)NC(=O)C2CC(Oc3nccc4ccccc34)CN2C1=O` (centres unmarked) [Compound 25], the pIC50 was over 7.30.
As for `CC(=O)NC1CCCCCC=CC2CC2(C(=O)NS(=O)(=O)C2CC2)NC(=O)C2CC(Oc3nccc4ccccc34)CN2C1=O` (centres unmarked) [Compound 26], the negative logarithm of the IC50 (pIC50) is over 7.30.
As to `COc1ccc2c(OC3CC4C(=O)NC5(C(=O)NS(=O)(=O)C6CC6)CC5C=CCOCCCC(NC(=O)OC(C)(C)C)C(=O)N4C3)nccc2c1` (centres unmarked) [Compound 28, [4-Cyclopropanesulfonylaminocarbonyl-18-(6-methoxy-isoquinolin-1-yloxy)-2,15-dioxo-10-oxa-3,16-diaza-tricyclo[14.3.0.0^4,6]nonadec-7-en-14-yl]-carbamic acid tert-butyl ester], the pIC50 was over 7.30.
For the compound `COc1ccc2c(OC3CC4C(=O)NC5(C(=O)NS(=O)(=O)C6(C)CC6)CC5C=CCOCCCC(NC(=O)OC(C)(C)C)C(=O)N4C3)nccc2c1` (centres unmarked) [Compound 29], the pIC50 is over 7.30.
For the compound `CCC1(S(=O)(=O)NC(=O)C23CC2C=CCOCCCC(NC(=O)OC(C)(C)C)C(=O)N2CC(Oc4nccc5cc(OC)ccc45)CC2C(=O)N3)CC1` (centres unmarked) [Compound 30], the pIC50 was over 7.30.
As to `COc1ccc2c(OC3CC4C(=O)NC5(C(=O)NS(=O)(=O)C6CC6)CC5C=CCOCCCC(NC(=O)OC(C)C)C(=O)N4C3)nccc2c1` (centres unmarked) [Compound 31], the pIC50 was over 7.30.
On to `COc1ccc2c(OC3CC4C(=O)NC5(C(=O)NS(=O)(=O)C6CC6)CC5C=CCOCCCC(NC(=O)OCC(C)(C)C)C(=O)N4C3)nccc2c1` (centres unmarked) [Compound 32], for which the pIC50 was over 7.30.
Same read-out and setting: then `COc1ccc2c(OC3CC4C(=O)NC5(C(=O)NS(=O)(=O)C6CC6)CC5C=CCOCCCC(NC(=O)NC5CCCC5)C(=O)N4C3)nccc2c1` (centres unmarked) [Compound 33], with over 7.30; and `COc1ccc2c(OC3CC4C(=O)NC5(C(=O)NS(=O)(=O)C6CC6)CC5C=CCOCCCC(NC(=O)NC(C)(C)C)C(=O)N4C3)nccc2c1` (centres unmarked) [Compound 34], with over 7.30.
As for `COc1ccc2c(OC3CC4C(=O)NC5(C(=O)NS(=O)(=O)C6(C)CC6)CC5C=CCOCCCC(NC(=O)OC(C)C)C(=O)N4C3)nccc2c1` (centres unmarked) [Compound 35], the pIC50 is over 7.30.
Consider `COc1ccc2c(OC3CC4C(=O)NC5(C(=O)NS(=O)(=O)C6(C)CC6)CC5C=CCOCCCC(NC(=O)NC5CCCC5)C(=O)N4C3)nccc2c1` (centres unmarked) [Compound 36], for which the pIC50 is over 7.30.
In the case of `CCC1(S(=O)(=O)NC(=O)C23CC2C=CCOCCCC(NC(=O)OC(C)C)C(=O)N2CC(Oc4nccc5cc(OC)ccc45)CC2C(=O)N3)CC1` (centres unmarked) [Compound 37], the negative-log IC50 (pIC50) was over 7.30.
In the case of `CCC1(S(=O)(=O)NC(=O)C23CC2C=CCOCCCC(NC(=O)NC2CCCC2)C(=O)N2CC(Oc4nccc5cc(OC)ccc45)CC2C(=O)N3)CC1` (centres unmarked) [Compound 38], the negative logarithm of the IC50 (pIC50) was over 7.30.
